Earlier results as cited in patent publication US6919359B2, “Azabicyclic-substituted-heteroaryl compounds for the treatment of disease” (Pfizer Inc, priority 2001, dated 2005).

How the values were obtained:
[1] = target: T1, 5HT3R (Homo sapiens, UniProt P46098)
T1 sequence (P46098 24-478): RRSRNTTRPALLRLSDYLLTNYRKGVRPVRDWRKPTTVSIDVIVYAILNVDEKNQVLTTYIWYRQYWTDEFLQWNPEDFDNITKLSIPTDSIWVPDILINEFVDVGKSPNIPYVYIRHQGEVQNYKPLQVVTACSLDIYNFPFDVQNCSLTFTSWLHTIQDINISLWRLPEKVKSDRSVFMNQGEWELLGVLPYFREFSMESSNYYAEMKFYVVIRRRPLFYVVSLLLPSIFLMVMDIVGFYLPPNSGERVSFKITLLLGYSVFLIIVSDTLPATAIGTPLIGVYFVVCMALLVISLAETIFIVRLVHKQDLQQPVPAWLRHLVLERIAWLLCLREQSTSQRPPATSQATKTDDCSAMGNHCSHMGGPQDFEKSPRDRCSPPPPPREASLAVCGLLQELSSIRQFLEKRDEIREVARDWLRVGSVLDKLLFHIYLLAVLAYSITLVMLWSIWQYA

[2] = target: α7 nAChR (Homo sapiens, UniProt P36544)
α7 nAChR, sequence (P36544 23-502): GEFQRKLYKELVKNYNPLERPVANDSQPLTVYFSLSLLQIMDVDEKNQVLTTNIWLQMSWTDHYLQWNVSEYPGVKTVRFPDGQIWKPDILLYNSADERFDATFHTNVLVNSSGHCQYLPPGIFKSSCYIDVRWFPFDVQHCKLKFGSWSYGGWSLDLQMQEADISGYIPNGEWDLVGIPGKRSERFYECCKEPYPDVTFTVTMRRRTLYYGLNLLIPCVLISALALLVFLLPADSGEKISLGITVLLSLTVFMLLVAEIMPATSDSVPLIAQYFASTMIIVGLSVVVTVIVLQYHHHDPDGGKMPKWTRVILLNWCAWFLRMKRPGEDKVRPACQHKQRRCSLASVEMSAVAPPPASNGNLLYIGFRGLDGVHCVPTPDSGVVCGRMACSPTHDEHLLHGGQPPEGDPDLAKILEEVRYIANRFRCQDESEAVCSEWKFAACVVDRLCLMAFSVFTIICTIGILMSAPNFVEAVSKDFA

Row | activity at the 5HT3R [1] | activity at the α7 nAChR [2] | SMILES
1 | little activity |  | COc1ccc(/C=C2\CCCN=C2c2cccnc2)c(OC)c1 [GTS-21]
2 |  | little activity | Cc1nccn1CC1CCc2c(c3ccccc3n2C)C1=O (centres unmarked) [Ondansetron]
